Measured values as given in article PMC10620772, “Design, synthesis, and biological evaluation of new pyrimidine-5-carbonitrile derivatives as novel anti-cancer, dual EGFR^WT/COX-2 inhibitors with docking studies” (RSC Advances, 2023).

Experiments:
Format in all cases: cell-based, human
[1] = tested on: HL-60(TB); experiment: NCI60 antitumor screening; details: 10 μM one-dose
[2] = tested on: SK-MEL-5; experiment: NCI60 antitumor screening; details: 10 μM one-dose
[3] = tested on: SW-620; experiment: NCI60 antitumor screening; details: 10 μM one-dose
[4] = tested on: MOLT-4; experiment: NCI60 antitumor screening; details: 10 μM one-dose
[5] = tested on: COLO 205; experiment: NCI60 antitumor screening; details: 10 μM one-dose
[6] = tested on: SK-MEL-2; experiment: NCI60 antitumor screening; details: 10 μM one-dose
[7] = tested on: UO-31; experiment: NCI60 antitumor screening; details: 10 μM one-dose
[8] = tested on: HOP-62; experiment: NCI60 antitumor screening; details: 10 μM one-dose
[9] = tested on: M14; experiment: NCI60 antitumor screening; details: 10 μM one-dose
[10] = tested on: EKVX; experiment: NCI60 antitumor screening; details: 10 μM one-dose
[11] = tested on: OVCAR-8; experiment: NCI60 antitumor screening; details: 10 μM one-dose
[12] = tested on: OVCAR-3; experiment: NCI60 antitumor screening; details: 10 μM one-dose
[13] = tested on: T-47D; experiment: NCI60 antitumor screening; details: 10 μM one-dose
[14] = tested on: NCI-H23; experiment: NCI60 antitumor screening; details: 10 μM one-dose
[15] = tested on: NCI-H460; experiment: NCI60 antitumor screening; details: 10 μM one-dose
[16] = tested on: K-562; experiment: NCI60 antitumor screening; details: 10 μM one-dose
[17] = tested on: BT-549; experiment: NCI60 antitumor screening; details: 10 μM one-dose
[18] = tested on: MDA-MB-231/ATCC; experiment: NCI60 antitumor screening; details: 10 μM one-dose
[19] = tested on: MDA-MB-435; experiment: NCI60 antitumor screening; details: 10 μM one-dose
[20] = tested on: NCI/ADR-RES; experiment: NCI60 antitumor screening; details: 10 μM one-dose
[21] = tested on: SF-295; experiment: NCI60 antitumor screening; details: 10 μM one-dose
[22] = tested on: NCI-H226; experiment: NCI60 antitumor screening; details: 10 μM one-dose
[23] = tested on: HOP-92; experiment: NCI60 antitumor screening; details: 10 μM one-dose
[24] = tested on: MALME-3M; experiment: NCI60 antitumor screening; details: 10 μM one-dose
[25] = tested on: RPMI-8226; experiment: NCI60 antitumor screening; details: 10 μM one-dose
[26] = tested on: RXF 393; experiment: NCI60 antitumor screening; details: 10 μM one-dose
[27] = tested on: SK-MEL-28; experiment: NCI60 antitumor screening; details: 10 μM one-dose
[28] = tested on: U251; experiment: NCI60 antitumor screening; details: 10 μM one-dose
[29] = tested on: HCT-116; experiment: NCI60 antitumor screening; details: 10 μM one-dose
[30] = tested on: UACC-62; experiment: NCI60 antitumor screening; details: 10 μM one-dose
[31] = tested on: HCT-15; experiment: NCI60 antitumor screening; details: 10 μM one-dose
[32] = tested on: SN12C; experiment: NCI60 antitumor screening; details: 10 μM one-dose
[33] = tested on: KM12; experiment: NCI60 antitumor screening; details: 10 μM one-dose
[34] = tested on: DU-145; experiment: NCI60 antitumor screening; details: 10 μM one-dose
[35] = tested on: SR; experiment: NCI60 antitumor screening; details: 10 μM one-dose
[36] = tested on: PC-3; experiment: NCI60 antitumor screening; details: 10 μM one-dose
[37] = tested on: MCF7; experiment: NCI60 antitumor screening; details: 10 μM one-dose
[38] = tested on: IGROV1; experiment: NCI60 antitumor screening; details: 10 μM one-dose
[39] = tested on: ACHN; experiment: NCI60 antitumor screening; details: 10 μM one-dose
[40] = tested on: CAKI-1; experiment: NCI60 antitumor screening; details: 10 μM one-dose
[41] = tested on: OVCAR-5; experiment: NCI60 antitumor screening; details: 10 μM one-dose
[42] = tested on: 786–0; experiment: NCI60 antitumor screening; details: 10 μM one-dose
[43] = tested on: UACC-257; experiment: NCI60 antitumor screening; details: 10 μM one-dose
[44] = tested on: SK-OV-3; experiment: NCI60 antitumor screening; details: 10 μM one-dose
[45] = tested on: HS 578T; experiment: NCI60 antitumor screening; details: 10 μM one-dose
[46] = tested on: A498; experiment: NCI60 antitumor screening; details: 10 μM one-dose
[47] = tested on: NCI60 cell lines panel; experiment: NCI60 antitumor screening, full panel; details: 10 μM one-dose, mean over NCI60
In short: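 Single-concentration screen at 10 μM across the NCI60 panel (leukaemia, NSCLC, colon, CNS, melanoma, ovarian, renal, prostate, breast). Results are expressed as percent growth inhibition (GI%) of treated lines.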

[48] = tested on: SNB-75; experiment: NCI60 antitumor screening; details: 10 μM one-dose
[49] = tested on: HT29; experiment: NCI60 antitumor screening; details: 10 μM one-dose
[50] = tested on: A549/ATCC; experiment: NCI60 antitumor screening; details: 10 μM one-dose
[51] = tested on: OVCAR-4; experiment: NCI60 antitumor screening; details: 10 μM one-dose
[52] = tested on: SNB-19; experiment: NCI60 antitumor screening; details: 10 μM one-dose
[53] = tested on: CCRF-CEM; experiment: NCI60 antitumor screening; details: 10 μM one-dose
[54] = tested on: SF-539; experiment: NCI60 antitumor screening; details: 10 μM one-dose
[55] = tested on: NCI-H322M; experiment: NCI60 antitumor screening; details: 10 μM one-dose
[56] = tested on: TK-10; experiment: NCI60 antitumor screening; details: 10 μM one-dose
[57] = tested on: LOX IMVI; experiment: NCI60 antitumor screening; details: 10 μM one-dose
[58] = tested on: NCI-H522; experiment: NCI60 antitumor screening; details: 10 μM one-dose
[59] = tested on: HCC-2998; experiment: NCI60 antitumor screening; details: 10 μM one-dose
[60] = tested on: SF-268; experiment: NCI60 antitumor screening; details: 10 μM one-dose
[61] = tested on: MDA-MB-468; experiment: NCI60 antitumor screening; details: 10 μM one-dose

Cc1ccc(CSc2nc(Cl)c(C#N)c(-c3ccc(F)cc3)n2)cc1 [3d, 4-Chloro-6-(4-fluorophenyl)-2-((4-methylbenzyl)thio)pyrimidine-5-carbonitrile]
GI% [1]: 51.77%
GI% [2]: 15.98%
GI% [3]: 11.21%
GI% [4]: 29.08%
GI% [5]: — (GI% < 10)
GI% [6]: — (GI% < 10)
GI% [7]: 17.01%
GI% [8]: — (GI% < 10)
GI% [9]: — (GI% < 10)
GI% [10]: 20.92%
GI% [11]: — (GI% < 10)
GI% [12]: — (GI% < 10)
GI% [13]: 46.84%
GI% [14]: — (GI% < 10)
GI% [15]: — (GI% < 10)
GI% [16]: 42.83%
GI% [17]: 18.08%
GI% [18]: — (GI% < 10)
GI% [19]: — (GI% < 10)
GI% [20]: 14.93%
GI% [21]: 11.51%
GI% [22]: 37.93%
GI% [23]: 34.25%
GI% [24]: — (GI% < 10)
GI% [25]: 25.03%
GI% [26]: 12.49%
GI% [27]: — (GI% < 10)
GI% [28]: 15.75%
GI% [29]: 25.73%
GI% [30]: 17.58%
GI% [31]: 24.97%
GI% [32]: 27.59%
GI% [33]: 19.05%
GI% [34]: 18.41%
GI% [35]: — (GI% < 10)
GI% [36]: 35.47%
GI% [37]: 12.55%
GI% [38]: — (GI% < 10)
GI% [39]: — (GI% < 10)
GI% [40]: 16.99%
GI% [41]: — (GI% < 10)
GI% [42]: 12.30%
GI% [43]: — (GI% < 10)
GI% [44]: — (GI% < 10)
GI% [45]: — (GI% < 10)
GI% [46]: — (GI% < 10)
Mean GI% [47]: 12.62%
GI% [48]: — (GI% < 10)
GI% [49]: 51.51%
GI% [50]: 16.81%
GI% [51]: 14.97%
GI% [52]: — (GI% < 10)
GI% [53]: 29.71%
GI% [54]: 15.58%
GI% [55]: — (GI% < 10)
GI% [56]: — (GI% < 10)
GI% [57]: — (GI% < 10)
GI% [58]: 29.73%
GI% [59]: — (GI% < 10)
GI% [60]: 12.95%
GI% [61]: — (GI% < 10)

N#Cc1c(Cl)nc(SCc2ccccc2)nc1-c1ccc(F)cc1 [3a, 2-(Benzylthio)-4-chloro-6-(4-fluorophenyl) pyrimidine-5-carbonitrile]
GI% [1]: 44.03%
GI% [2]: — (GI% < 10)
GI% [3]: — (GI% < 10)
GI% [4]: — (GI% < 10)
GI% [5]: — (GI% < 10)
GI% [6]: — (GI% < 10)
GI% [7]: 14.25%
GI% [8]: 12.77%
GI% [9]: — (GI% < 10)
GI% [10]: — (GI% < 10)
GI% [11]: 27.14%
GI% [12]: — (GI% < 10)
GI% [13]: 10.38%
GI% [14]: — (GI% < 10)
GI% [15]: — (GI% < 10)
GI% [16]: 11.78%
GI% [17]: 11.73%
GI% [18]: 21.72%
GI% [19]: — (GI% < 10)
GI% [20]: 20.64%
GI% [21]: 27.87%
GI% [22]: 18.61%
GI% [23]: 14.74%
GI% [24]: — (GI% < 10)
GI% [25]: — (GI% < 10)
GI% [26]: 19.19%
GI% [27]: — (GI% < 10)
GI% [28]: 39.15%
GI% [29]: 22.79%
GI% [30]: — (GI% < 10)
GI% [31]: — (GI% < 10)
GI% [32]: — (GI% < 10)
GI% [33]: — (GI% < 10)
GI% [34]: — (GI% < 10)
GI% [35]: — (GI% < 10)
GI% [36]: — (GI% < 10)
GI% [37]: — (GI% < 10)
GI% [38]: — (GI% < 10)
GI% [39]: 45.51%
GI% [40]: 21.66%
GI% [41]: — (GI% < 10)
GI% [42]: 38.26%
GI% [43]: — (GI% < 10)
GI% [44]: — (GI% < 10)
GI% [45]: 16.76%
GI% [46]: — (GI% < 10)
Mean GI% [47]: — (GI% < 10)
GI% [48]: — (GI% < 10)
GI% [49]: — (GI% < 10)
GI% [50]: 16.44%
GI% [51]: 49.74%
GI% [52]: 16.70%
GI% [53]: — (GI% < 10)
GI% [54]: 24.06%
GI% [55]: — (GI% < 10)
GI% [56]: — (GI% < 10)
GI% [57]: — (GI% < 10)
GI% [58]: 16.01%
GI% [59]: — (GI% < 10)
GI% [60]: 21.56%
GI% [61]: — (GI% < 10)
